From article PMC7723751 (Bioorganic chemistry, 2020) come the findings set out here.

Assay [1] deals with T1, Human sEH (Homo sapiens, UniProt P34913).
T1 sequence (P34913 1-555): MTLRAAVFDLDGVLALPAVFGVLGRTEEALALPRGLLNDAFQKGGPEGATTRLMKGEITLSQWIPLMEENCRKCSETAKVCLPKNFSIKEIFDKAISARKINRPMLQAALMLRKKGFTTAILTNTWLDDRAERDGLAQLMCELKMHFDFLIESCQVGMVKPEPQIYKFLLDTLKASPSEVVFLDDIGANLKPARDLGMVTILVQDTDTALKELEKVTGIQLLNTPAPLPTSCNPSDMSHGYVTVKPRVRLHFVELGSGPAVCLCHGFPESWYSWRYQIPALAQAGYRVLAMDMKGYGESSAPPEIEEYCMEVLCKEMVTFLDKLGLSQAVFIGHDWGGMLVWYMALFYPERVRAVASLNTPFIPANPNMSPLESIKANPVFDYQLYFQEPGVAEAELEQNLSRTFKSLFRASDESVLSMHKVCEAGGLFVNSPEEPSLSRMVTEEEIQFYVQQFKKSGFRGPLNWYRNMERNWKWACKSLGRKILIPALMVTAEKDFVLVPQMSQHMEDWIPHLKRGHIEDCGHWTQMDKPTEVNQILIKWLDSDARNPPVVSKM
Briefly: Human sEH inhibition assay. Format: biochemical. The settings on record: sEH IC50, human sEH 1 nM, CMNPC 5 μM, pH 7.0, 30 °C.

Assay [2] deals with T2, human FAAH enzyme (Homo sapiens, UniProt O00519).
T2 sequence (O00519 1-579): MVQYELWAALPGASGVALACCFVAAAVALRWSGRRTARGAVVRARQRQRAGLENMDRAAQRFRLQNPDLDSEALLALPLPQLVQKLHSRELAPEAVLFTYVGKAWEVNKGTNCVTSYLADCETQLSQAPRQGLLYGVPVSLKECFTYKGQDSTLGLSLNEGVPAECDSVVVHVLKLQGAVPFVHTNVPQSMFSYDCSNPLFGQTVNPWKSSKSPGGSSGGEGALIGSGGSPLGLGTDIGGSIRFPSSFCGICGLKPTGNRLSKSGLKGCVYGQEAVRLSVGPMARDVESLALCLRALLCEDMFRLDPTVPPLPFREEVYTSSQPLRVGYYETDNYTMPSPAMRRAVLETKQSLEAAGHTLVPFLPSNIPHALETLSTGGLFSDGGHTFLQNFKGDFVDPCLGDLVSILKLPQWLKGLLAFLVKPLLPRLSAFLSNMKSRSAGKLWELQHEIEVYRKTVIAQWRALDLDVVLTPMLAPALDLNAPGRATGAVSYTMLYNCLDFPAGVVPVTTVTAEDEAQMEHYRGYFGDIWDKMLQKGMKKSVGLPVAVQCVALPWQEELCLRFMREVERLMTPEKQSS
The assay can be described thus: Human FAAH enzyme inhibition assay. Format: biochemical.

On to `Cc1ccc(S(=O)(=O)N2CCC(C(=O)Nc3ccc(-c4nc5ccccc5s4)cc3)CC2)cc1` [Compound 4-17, N-(4-(benzo[d]thiazol-2-yl)phenyl)-1-tosylpiperidine-4-carboxamide], for which the values for the half-inhibitory concentration (IC50) in assay [1] and in assay [2] were 370 nM and > 10000 nM, respectively.

As for `O=C(Nc1ccc(-c2nc3ccccc3s2)cc1)C1CCN(S(=O)(=O)c2cccc(Br)c2)CC1` [Compound 4-11, N-(4-(benzo[d]thiazol-2-yl)phenyl)-1-((3-bromophenyl)sulfonyl)piperidine-4-carboxamide], the half-maximal inhibitory concentration (IC50) in assay [1] came to 1100 nM; in assay [2], 51.6 nM.

Regarding `Cc1cccc(S(=O)(=O)N2CCC(C(=O)Nc3ccc(-c4nc5ccccc5s4)cc3)CC2)c1` [Compound 4-12, N-(4-(benzo[d]thiazol-2-yl)phenyl)-1-(m-tolylsulfonyl)piperidine-4-carboxamide], the half-inhibitory concentration (IC50) is 940 nM in assay [1] and 7 nM in assay [2].

With `O=C(Nc1ccc(-c2nc3ccccc3s2)cc1)C1CCN(S(=O)(=O)c2ccccc2F)CC1` [Compound 4-4, N-(4-(benzo[d]thiazol-2-yl)phenyl)-1-((2-fluorophenyl)sulfonyl)piperidine-4-carboxamide], the figures for the IC50 in assay [1] and in assay [2] were 150 nM and 1.3 nM, respectively.

As to `O=C(Nc1ccc(-c2nc3ccccc3s2)cc1)C1CCN(S(=O)(=O)c2ccc(Br)cc2)CC1` [Compound 4-16, N-(4-(benzo[d]thiazol-2-yl)phenyl)-1-((4-bromophenyl)sulfonyl)piperidine-4-carboxamide], the 50% inhibitory concentration (IC50) was determined as 580 nM in assay [1] and 185 nM in assay [2].

With `O=C(Nc1ccc(-c2nc3ccccc3s2)cc1)C1CCN(S(=O)(=O)c2cccc(F)c2)CC1` [Compound 4-9, N-(4-(benzo[d]thiazol-2-yl)phenyl)-1-((3-fluorophenyl)sulfonyl)piperidine-4-carboxamide], the IC50 in assay [1] is 1700 nM; in assay [2] it was 13.4 nM.

Take `O=C(Nc1ccc(-c2nc3ccccc3s2)cc1)C1CCN(S(=O)(=O)c2c(Cl)cc(Cl)cc2Cl)CC1` [Compound 4-27, N-(4-(benzo[d]thiazol-2-yl)phenyl)-1-((2,4,6-trichlorophenyl)sulfonyl)piperidine-4-carboxamide]: the IC50 in assay [1] came to 1300 nM; in assay [2], 270 nM.

For the molecule `O=C(Nc1ccc(-c2nc3ccccc3s2)cc1)C1CCN(S(=O)(=O)c2cccs2)CC1` [Compound 4-1, N-(4-(benzo[d]thiazol-2-yl)phenyl)-1-(thiophen-2-ylsulfonyl)piperidine-4-carboxamide], the IC50 in assay [1] was determined as 420 nM; in assay [2], 16 nM.

As for `O=C(Nc1ccc(-c2nc3ccccc3s2)cc1)C1CCN(S(=O)(=O)c2cccc(Cl)c2)CC1` [Compound 4-10, N-(4-(benzo[d]thiazol-2-yl)phenyl)-1-((3-chlorophenyl)sulfonyl)piperidine-4-carboxamide], the half-inhibitory concentration (IC50) in assay [1] stood at 2400 nM; in assay [2], 7.2 nM.

In the case of `O=C(Nc1ccc(-c2nc3ccccc3s2)cc1)C1CCN(S(=O)(=O)c2c(F)cc(F)cc2F)CC1` [Compound 4-26, N-(4-(benzo[d]thiazol-2-yl)phenyl)-1-((2,4,6-trifluorophenyl)sulfonyl)piperidine-4-carboxamide], the concentration for half-maximal inhibition (IC50) came out at 6600 nM in assay [1] and 250 nM in assay [2].

With `Cc1cc(C)cc(S(=O)(=O)N2CCC(C(=O)Nc3ccc(-c4nc5ccccc5s4)cc3)CC2)c1` [Compound 4-25, N-(4-(benzo[d]thiazol-2-yl)phenyl)-1-((3,5-dimethylphenyl)sulfonyl)piperidine-4-carboxamide], the IC50 in assay [1] was 3600 nM; in assay [2], > 10000 nM.

For `O=C(Nc1ccc(-c2nc3ccccc3s2)cc1)C1CCN(S(=O)(=O)c2c(F)c(F)c(F)c(F)c2F)CC1` [Compound 4-30, N-(4-(benzo[d]thiazol-2-yl)phenyl)-1-((perfluorophenyl)sulfonyl)piperidine-4-carboxamide], the values for the concentration for half-maximal inhibition (IC50) in assay [1] and in assay [2] were 2670 nM and > 10000 nM, respectively.

Regarding `O=C(Nc1ccc(-c2nc3ccccc3s2)cc1)C1CCN(S(=O)(=O)c2cc(Br)c(Cl)s2)CC1` [Compound 4-2, N-(4-(benzo[d]thiazol-2-yl)phenyl)-1-((4-bromo-5-chlorothiophen-2-yl)sulfonyl)piperidine-4-carboxamide], the IC50 in assay [1] amounted to 5900 nM; in assay [2] it was 2700 nM.

As for `Cc1ccc(S(=O)(=O)N2CCC(C(=O)Nc3ccc(-c4nc5ccccc5s4)cc3)CC2)c(C)c1` [Compound 4-22, N-(4-(benzo[d]thiazol-2-yl)phenyl)-1-((2,4-dimethylphenyl)sulfonyl)piperidine-4-carboxamide], the IC50 in assay [1] came out at 29.2 nM; in assay [2], 5.5 nM.

Turning to `O=C(Nc1ccc(-c2nc3ccccc3s2)cc1)C1CCN(S(=O)(=O)c2ccc(F)cc2)CC1` [Compound 4-14, N-(4-(benzo[d]thiazol-2-yl)phenyl)-1-((4-fluorophenyl)sulfonyl)piperidine-4-carboxamide], the IC50 in assay [1] is 1300 nM; in assay [2], 77 nM.

In the case of `O=C(Nc1ccc(-c2nc3ccccc3s2)cc1)C1CCN(S(=O)(=O)c2ccc(F)cc2F)CC1` [Compound 4-19, N-(4-(benzo[d]thiazol-2-yl)phenyl)-1-((2,4-difluorophenyl)sulfonyl)piperidine-4-carboxamide], the values for the half-maximal inhibitory concentration (IC50) in assay [1] and in assay [2] were 195 nM and 11.4 nM, respectively.

On to `COc1ccc(S(=O)(=O)N2CCC(C(=O)Nc3ccc(-c4nc5ccccc5s4)cc3)CC2)cc1` [Compound 4-18, N-(4-(benzo[d]thiazol-2-yl)phenyl)-1-((4-methoxyphenyl)sulfonyl)piperidine-4-carboxamide], for which the IC50 in assay [1] was 84 nM; in assay [2], > 10000 nM.

Regarding `Cc1ccccc1S(=O)(=O)N1CCC(C(=O)Nc2ccc(-c3nc4ccccc4s3)cc2)CC1` [Compound 4-7, N-(4-(benzo[d]thiazol-2-yl)phenyl)-1-(o-tolylsulfonyl)piperidine-4-carboxamide], the IC50 amounted to 35 nM in assay [1] and 9.6 nM in assay [2].

On to `O=C(Nc1ccc(-c2nc3ccccc3s2)cc1)C1CCN(S(=O)(=O)c2cc(F)cc(F)c2)CC1` [Compound 4-24, N-(4-(benzo[d]thiazol-2-yl)phenyl)-1-((3,5-difluorophenyl)sulfonyl)piperidine-4-carboxamide], for which the IC50 was 1100 nM in assay [1] and > 10000 nM in assay [2].

In the case of `O=C(Nc1ccc(-c2nc3ccccc3s2)cc1)C1CCN(S(=O)(=O)c2ccccc2Br)CC1` [Compound 4-6, N-(4-(benzo[d]thiazol-2-yl)phenyl)-1-((2-bromophenyl)sulfonyl)piperidine-4-carboxamide], the concentration for half-maximal inhibition (IC50) in assay [1] stood at 24 nM; in assay [2], 6.1 nM.

As to `COc1ccc(S(=O)(=O)N2CCC(C(=O)Nc3ccc(-c4nc5ccccc5s4)cc3)CC2)c(OC)c1` [Compound 4-23, N-(4-(benzo[d]thiazol-2-yl)phenyl)-1-((2,4-dimethoxyphenyl)sulfonyl)piperidine-4-carboxamide], the values for the IC50 in assay [1] and in assay [2] were 180 nM and 36.2 nM, respectively.

In the case of `COc1ccccc1S(=O)(=O)N1CCC(C(=O)Nc2ccc(-c3nc4ccccc4s3)cc2)CC1` [Compound 4-8, N-(4-(benzo[d]thiazol-2-yl)phenyl)-1-((2-methoxyphenyl)sulfonyl)piperidine-4-carboxamide], the IC50 is 26 nM in assay [1] and 80 nM in assay [2].
